Consider 20 compounds from ChEMBL document CHEMBL2439971, “Design, synthesis and antiproliferative evaluation of fluorenone analogs with DNA topoisomerase I inhibitory properties” (Bioorg Med Chem, 2013).

Calls of active or inactive are those of the source. The rule behind the calls is not given here.

One assay is filed under the species Homo sapiens. In words: Inhibition of telomerase (unknown origin) at 10 uM TRAP assay.
The next assay has as its system PC-3. In words: Cytotoxicity against human PC3 cells after 48 hrs by sulforhodamine B assay. To be noted: PC-3, 48 h. Format: functional, cell-based. A general note: The SRB assay estimates cell density from bound dye.

As a reminder, the IC50 is the point on the concentration scale where inhibition reaches its midpoint. A higher IC50 goes with weaker potency. `CC(C)SCCC(=O)Nc1ccc2c(c1)C(=O)c1cc(NC(=O)CCSC(C)C)ccc1-2`: the inhibition entry in the assay listed under Homo sapiens was “inactive”. Also, in the assay with PC-3, the IC50 is above 30 µM.

On to `O=C(CCN1CCCCC1)Nc1ccc2c(c1)C(=O)c1cc(NC(=O)CCN3CCCCC3)ccc1-2`, for which, in the assay listed under Homo sapiens, the inhibition result is “inactive”. Also, the IC50 in the assay with PC-3 was 6.26 µM.

As for `Nc1ccc2c(c1)C(=O)c1cc(N)ccc1-2`, in the assay filed under Homo sapiens, the inhibition result was “inactive”. The compound further returned an IC50 with PC-3 above 30 µM.

For the compound `CCCCNCCC(=O)Nc1ccc2c(c1)C(=O)c1cc(NC(=O)CCNCCCC)ccc1-2`, the inhibition result in the assay filed under Homo sapiens was “inactive”. This compound also came in with an IC50 in the assay with PC-3 of 26.9 µM.

As to `O=C(CSCCO)Nc1ccc2c(c1)C(=O)c1cc(NC(=O)CSCCO)ccc1-2`, the inhibition entry in the assay filed under Homo sapiens is “inactive”. Besides, in the assay with PC-3, the IC50 was above 30 µM.

For the compound `O=C(CCN1CCCC1)Nc1ccc2c(c1)C(=O)c1cc(NC(=O)CCN3CCCC3)ccc1-2`, in the assay filed under Homo sapiens, the inhibition result was “inactive”. Also, the midpoint of inhibition in the assay with PC-3, the IC50, lay at 6.06 µM.

As for `O=C(CCl)Nc1ccc2c(c1)C(=O)c1cc(NC(=O)CCl)ccc1-2`, the inhibition entry in the assay filed under Homo sapiens was “inactive”. Further, in the assay on PC-3, the IC50 was found to be 0.55 µM.

Turning to `O=C1c2cc([N+](=O)[O-])ccc2-c2ccc([N+](=O)[O-])cc21`, the inhibition entry in the assay filed under Homo sapiens was “inactive”. The IC50 in the assay on PC-3 was above 30 µM.

Regarding `CCCSCCC(=O)Nc1ccc2c(c1)C(=O)c1cc(NC(=O)CCSCCC)ccc1-2`, the inhibition entry in the assay listed under Homo sapiens was “inactive”. The compound also showed an IC50 in the assay with PC-3 above 30 µM.

Take `O=C(CCCl)Nc1ccc2c(c1)C(=O)c1cc(NC(=O)CCCl)ccc1-2`: in the assay filed under Homo sapiens, the inhibition result was “inactive”. Further, the IC50 in the assay on PC-3 was above 30 µM.

`CC(C)NCC(=O)Nc1ccc2c(c1)C(=O)c1cc(NC(=O)CNC(C)C)ccc1-2`: the inhibition result in the assay filed under Homo sapiens was “inactive”. Moreover, in the assay on PC-3, half-maximal inhibition (IC50) required 6.19 µM.

With `O=C(CNCCO)Nc1ccc2c(c1)C(=O)c1cc(NC(=O)CNCCO)ccc1-2`, the inhibition result in the assay listed under Homo sapiens was “inactive”. Further, the IC50 with PC-3 is above 30 µM.

Consider `CC(C)CNCC(=O)Nc1ccc2c(c1)C(=O)c1cc(NC(=O)CNCC(C)C)ccc1-2`, for which the inhibition entry in the assay filed under Homo sapiens was “inactive”. This compound also returned an IC50 in the assay with PC-3 above 30 µM.

Regarding `CCSCC(=O)Nc1ccc2c(c1)C(=O)c1cc(NC(=O)CSCC)ccc1-2`, in the assay filed under Homo sapiens, the inhibition entry is “inactive”. For the same compound, in the assay on PC-3, the IC50 was above 30 µM.

Take `CCCNCCC(=O)Nc1ccc2c(c1)C(=O)c1cc(NC(=O)CCNCCC)ccc1-2`: the inhibition result in the assay filed under Homo sapiens was “inactive”. Moreover, in the assay with PC-3, the IC50 worked out at 20.8 µM.

Take `O=C(CN1CCOCC1)Nc1ccc2c(c1)C(=O)c1cc(NC(=O)CN3CCOCC3)ccc1-2`: the inhibition result in the assay listed under Homo sapiens is “inactive”. Moreover, the IC50 with PC-3 is above 30 µM.

`O=C(CN1CCCCC1)Nc1ccc2c(c1)C(=O)c1cc(NC(=O)CN3CCCCC3)ccc1-2`: the inhibition result in the assay filed under Homo sapiens is “inactive”. In the assay with PC-3, this compound came in with an IC50 above 30 µM.

Consider `O=C(CCNCCO)Nc1ccc2c(c1)C(=O)c1cc(NC(=O)CCNCCO)ccc1-2`, for which the inhibition entry in the assay filed under Homo sapiens is “inactive”. Besides, the IC50 in the assay on PC-3 is 19.2 µM.

`CC(C)NCCC(=O)Nc1ccc2c(c1)C(=O)c1cc(NC(=O)CCNC(C)C)ccc1-2`: the inhibition entry in the assay listed under Homo sapiens is “inactive”. In the assay with PC-3, this compound showed an IC50 of 10 µM.

With `CC(C)SCC(=O)Nc1ccc2c(c1)C(=O)c1cc(NC(=O)CSC(C)C)ccc1-2`, the inhibition entry in the assay filed under Homo sapiens was “inactive”. The compound also came in with an IC50 in the assay with PC-3 above 30 µM.
